{"source": "patent US11350648B2", "about": "“Compositions and related methods for agriculture” (priority 2017, dated 2022)", "origin": "cited, not measured here", "system": "gram-negative and gram-positive bacteria as well as fungi", "data": [{"substance": "NCR335: cationic NCR peptide (RQMIILRLNTTFRPLNFKMLRFWGQN)", "values": [{"measurement": "antimicrobial activity", "result": "effective against gram-negative and gram-positive bacteria as well as fungi"}]}]}
